Columns and labels:
[1] = tested on: breast cancer cells (4T1); assay: In vitro fasting (STS) and chemotherapy, MTT survival, 4T1; type: cell-based, murine; settings: for sensitization by serum from fasted mice: versus serum from mice fed ad lib, MTT
Description: To model fasting in vitro, cancer cells were incubated in media containing serum collected from mice either fed ad lib or fasted for 48 hours. […] Because pronounced glucose and growth factor reduction (e.g., the 75% reduction in the growth factor IGF-I) are two key extracellular responses to fasting, cells were incubated in different glucose and serum concentrations based on blood glucose measurements from normally fed and fasted mice (FIG. 31), i.e., incubation in low glucose (0.5 g/L) with low serum (1% FBS), or normal glucose (1.0 and 2.0 g/L for human and murine cell lines respectively) with normal serum (10% FBS) for 24 hours before and also during drug treatment (FIG. 32).
4T1-luc murine breast cancer cells were purchased from SibIech (Brookfield, CT). B16-fluc murine melanoma cells were provided by Noah Craft (UCLA). GL26 murine glioma, U87-MG human glioblastoma cells were provided by Thomas Chen (USC). PC3 and 22RV1 human prostate cancer cells were provided by Pinchas Cohen (UCLA). MCF-7 and […] human breast cancer cells and HeLa human cervical cancer cells were provided by Amy Lee (USC). LOVO human colon cancer cells were provided by Darryl Shibata (USC). NXS2 and Neuro-2a murine neuroblastoma, human ACN and SH-SY5Y neuroblastoma, OVCAR human ovarian carcinoma, MZ-MEL human melanoma, A431 epidermoid carcinoma cells were routinely cultured in the Laboratory of Oncology of Gaslini Institute. 4T1 cells were stably transfected with LC3-GFP, which was a kind gift from Jae Jung at USC, for autophagy studies. All cells were routinely maintained in DMEM 10% FBS at 37° C., 5% CO2. To inhibit autophagy cells were treated with 5 μM chloroquine (CQ) for 48 hours during in vitro STS. To modulate HO-1 activity, 4T1 cells were treated with 10 μM hemin (Sigma) or 20 μM zinc protoporphyrin (ZnPP; Sigma) for 24 hours prior to and 24 hours during chemotherapy treatment.
In vitro chemotherapy was performed by treating cells in medium containing chemotherapy for 24 hours. Optimum drug doses were determined for each individual cell line. For in vivo studies, DXR was injected intravenously via lateral tail veins, and CP was injected intraperitoneally.
Cellular fasting was done by glucose and/or serum restriction which was based on blood glucose measurements in fasted and normally fed mice; the lower level approximated to 0.5 g/L. and the upper level to 2.0 g/L. For human cell lines, normal glucose was considered as 1.0 g/L. Cells were washed twice with PBS before changing to fasting medium.
Cytotoxicity was measured by the ability to reduce methylthiazolyldiphenyl-tetrazolium bromide (MTT). Briefly, MTT was prepared at 5 mg/ml in PBS, diluted to a final concentration of 0.5 mg/ml for assays, and incubated for 3-4 hours at 37° C. […] Survival was presented as percentage of MTT reduction level of treated cells to control cells. Absorbance was read at 570 nm using a microplate reader SpectraMax 250 (Molecular Devices) and SoftMax Pro 3.0 software (Molecular Devices).

melanoma (B16) cells = assay: In vitro fasting (STS) and chemotherapy, MTT survival, B16; type: cell-based, murine; settings: rhIGF-I; glucose 0.5 vs 2.0 g/L, 1% FBS; DXR 16 μM
Description: (§1) To model fasting in vitro, cancer cells were incubated in media containing serum collected from mice either fed ad lib or fasted for 48 hours. In agreement with results in mice, breast cancer cells (4T1) cultured in medium supplemented with serum from fasted mice were sensitized to both DXR and CP compared to the effect of incubation in serum from mice fed ad lib (FIG. 30). Because pronounced glucose and growth factor reduction (e.g., the 75% reduction in the growth factor IGF-I) are two key extracellular responses to fasting, cells were incubated in different glucose and serum concentrations based on blood glucose measurements from normally fed and fasted mice (FIG. 31), i.e., incubation in low glucose (0.5 g/L) with low serum (1% FBS), or normal glucose (1.0 and 2.0 g/L for human and murine cell lines respectively) with normal serum (10% FBS) for 24 hours before and also during drug treatment (FIG. 32). […]
In vitro chemotherapy was performed by treating cells in medium containing chemotherapy for 24 hours. Optimum drug doses were determined for each individual cell line. […]
(§2) Cytotoxicity was measured by the ability to reduce methylthiazolyldiphenyl-tetrazolium bromide (MTT). […] Absorbance was read at 570 nm using a microplate reader SpectraMax 250 (Molecular Devices) and SoftMax Pro 3.0 software (Molecular Devices).

prostate adenocarcinoma = assay: PSA level, cases 3 and 7; type: in vivo, human
Description: A person who was diagnosed in July of 2000 with bilateral prostate adenocarcinoma, Gleason score 7 and PSA level of 5.8 ng/ml. A prostatectomy performed in September of 2000 led to undetectable levels of PSA until January 2003 when it rose to 1.4 ng/ml. Leuprolide acetate together with bicalutamide and finasteride were prescribed. […] Different drugs including triptorelinpamoate, nilutamide, thalidomide, CP and ketoconazole were utilized to control the disease. In 2007 the patient's PSA level reached 9 ng/ml and new metastases were observed during a bone scan. […] After stopping the chemotherapy treatments, their PSA rose rapidly. DTX at 75 mg/m2 in a 3-weekly cycle was the regimen elected and once again the patient suffered significant side effects (FIG. 5). In June 2008, Chemotherapy stopped. The patient was enrolled in a phase III clinical trial with abiraterone acetate, a drug that can selectively block CYP17, a microsomal enzyme that catalyzes a series of reactions critical to nongonadal androgen biosynthesis (Derek Raghavan and Eric A. Klein J.C.O 2008). […] This time the patient opted to fast prior to chemotherapy. […] In agreement to the patient's experience, blood readouts were consistently stable and remained within normal range throughout the treatments (FIGS. 4A-G). During the last three cycles, besides fasting the patient applied testosterone (cream 1%) for five days prior to chemotherapy.
As a consequence the PSA level along with testosterone level increased dramatically.
A person who was diagnosed in July 1998 with prostate adenocarcinoma, Gleason score 8. […] In 1998, the patient received leuprolide acetate and bicalutamide for the first time. In September 1999, those drugs wore off and they were put on finasteride. […] They started the second cycle with leuprolide acetate and also received High Dose Rate (HDR) brachytherapy and external beam radiation with Intensity Modulated Radiation Therapy (IMRT). Complementary treatment with multiple drugs such as bicalutamide, triptorelinpamoate and nandrolone was applied in order to control the disease. However, their PSA level increased quickly each time the treatment was halted. […] The patient decided to fast 60-66 hours prior to and 8-24 hours followed chemotherapy (Table 3).

4T1 breast cancer = settings: two fasting cycles; 20 days after the last treatment
Description: Short-term starvation (STS), or fasting, was achieved by complete food withdrawal for 48-60 hours with continued access to water. […] Fasting in the glioma model was applied only once due to the unusually rapid tumor growth in the control (ad lib, no chemotherapy) group.
To establish a subcutaneous cancer mouse model, 12 week-old female BALB/c, 12-week-old female and male C57BL/6 mice, and 7-week-old Nude mice were injected with 4T1 breast cancer cells, B16 melanoma and GL26 glioma cells, and ACN human neuroblastoma cells, respectively. For metastatic mouse models of cancer, 12-week-old female BALB/c, 12-week-old female and male C57BL/6 mice were injected intravenously via lateral tail veins with 2×105 4T1, B16, GL26 cells, respectively, and 6-week-old female A/J mice were injected via lateral tail veins with 2×105 NXS2, and 1×10^6 Neuro-2a cells. […] Body weights were determined periodically and tumor size was measured using a digital vernier caliper. Tumor volume was calculated using the following equation: tumor volume (mm3)=(length×width×height)×π/6, where the length, width and height are in mm.
Animals were fasted for a total of 48-60 hours by complete deprivation of food but with free access to water. […] Body weight was measured immediately before and after fasting.

4T1 breast cancer cells = settings: glucose 0.5 vs 2.0 g/L, 1% FBS
Description: (§3) To determine the mechanisms responsible for this STS-dependent sensitization, the effect of low glucose on DNA single and double strand breaks in cancer cells exposed to chemotherapy by the comet assay was studied.
(§4) Cells were diluted to 10^5/ml in culture medium (DMEM/F12 with 10% FBS), and treated with 50 μM DXR for 1 hour at 37° C. Cells were then washed once with ice cold PBS and subject to CometAssay (Trevigen, Inc, Gaithersburg, MD) according to the manufacturer's recommended procedure. Comet images were acquired with a Nikon Eclipse TE300 fluorescent microscope and analyzed with the Comet Score software (TriTek Corp., ver1.5). 100-300 cells were scored for each genotype/treatment group.

B16 melanoma cells [2] = assay: Metastatic mouse model of melanoma; type: in vivo
Description: The effect of fasting on chemotherapy was studied in metastatic models generated by intravenous injections of murine breast cancer cells (4T1), melanoma cells (B16), and 2 neuroblastoma cell lines (NXS2 and Neuro-2a) in immunocompetent mice. Fasting potentiated chemotherapy and extended the survival of all mice models of metastatic cancer (FIGS. 24-28). In the metastatic model of melanoma, mice were sacrificed early to determine the effect of STS on metastases. […] For instance, lung metastases were found in 100% vs65% of mice that received DXR under normal feeding and fasting, respectively. In addition, unlike normally fed mice, metastases were not detected in the liver or spleen of fasted mice (FIG. 25).
Body weight was measured immediately before and after fasting.

[3] = tested on: murine neuroblastoma (NXS2); assay: Metastatic mouse model of neuroblastoma NXS2, survival; type: in vivo; settings: 16 mg/Kg
B16 melanoma cells [4] = assay: Comet assay, B16; type: cell-based, murine; settings: glucose 0.5 vs 2.0 g/L, 1% FBS
Description: as §3, §4

GL26 glioma cells = assay: Comet assay, GL26; type: cell-based, murine; settings: glucose 0.5 vs 2.0 g/L, 1% FBS
Description: as §3, §4

[5] = tested on: 17 different cancer cells; assay: STS sensitization panel of 17 cancer cell lines, MTT; type: cell-based; settings: 0.5 g/L glucose, 1% FBS versus normal glucose, 10% FBS
Description: as §1, with “32). In agreement with the in vivo studies, glucose and serum restriction sensitized 15 out of 17 different cancer cells lines, including the murine melanoma (B16), glioma (GL26), and breast cancer (4T1) cells to DXR and/or CP (FIGS. 32-34).” for “32).”
as §2

[6] = Self-reported side effects after chemotherapy (CTC-based survey); type: in vivo, human
Description: Ten cases are described in which patients diagnosed with a variety of malignancies have voluntarily fasted prior to (48-140 hours) and/or following (24-56 hours) chemotherapy. None of these 10 patients, who received an average of 4 cycles of chemotherapy in combination with fasting, reported significant side effects caused by the fasting itself other than hunger. Toxicity was graded based on the Common Toxicity Criteria (CTC) of the National Cancer Institute (NCI) and self-reported side-effects from five patients indicate that fasting may protect against fatigue, weakness, and gastrointestinal side effects.
Self-reported assessments of all 10 patients were obtained to evaluate the severity of the side effects experienced. Since many of the chemo toxic side effects are cumulative, survey data was compared, including all the combined fasting- and non-fasting associated chemotherapy side effects (FIG. 17A). Toxicity was graded based on the Common Toxicity Criteria of National Cancer Institute. Encouragingly, better self-reported health outcomes were addressed by all the patients even though chemo-fasting cycles were mostly carried out in the later portion of the therapy. Nausea, vomiting, diarrhea, abdominal cramps, and mouth sores were virtually absent from the reports of all 10 patients whenever chemo-fasting cycles were administered, whereas at least one of these symptoms was reported by 5 out of the 6 ad lib fed patients (FIG. 17A). The four patients that always fasted in combination with all the chemo-treatments reported low severity for the majority of the side effects (FIGS. 12, 13, 14, 16). Only mild weakness and hair loss were reported by multiple patients. For the 6 patients that received chemotherapy in association with both, fasting or ad lib diet, the severity of the self-reported side effects was determined by considering only the two closest cycle of chemotherapy in which the patient had fasted or not. There was a general and major reduction in the severity of many of the self-reported side effects in combination with fasting (FIG. 17B).

[7] = case 7, fasting 60-66 h prior, 8-24 h after

**Q.** Which “cell death on inhibition of autophagy during STS” value ([1]; 5 μM, 48 hours, glucose restriction in low serum) does the source give for `CCN(CC)CCCC(C)Nc1ccnc2cc(Cl)ccc12` (stereo not shown) [chloroquine] here?
**A.** further increased cell death

**Q.** With “IGF-I: rhIGF-I, growth factor added during glucose restriction” as the compound, how does the “effect on STS-dependent sensitization to DXR” value ([1]; rhIGF-I, glucose 0.5 vs 2.0 g/L, 1% FBS, DXR 16 μM) read?
**A.** reverses the sensitization

**Q.** What about the “effect on STS-dependent sensitization to DXR” value (melanoma (B16) cells) of the same compound?
**A.** reverses the sensitization

**Q.** For “Bevacizumab: Bevacizumab added into the DTX treatment”, which PSA (prostate adenocarcinoma; case 3, added to weekly DTX treatment) is on record?
**A.** dropped significantly

**Q.** For `O=P1(N(CCCl)CCCl)NCCCO1` (stereo not shown) [CP, cyclophosphamide], which “sensitization by serum from fasted mice” value [1] is on record?
**A.** sensitized

**Q.** And the “tumor size relative to CP treatment alone group” value (4T1 breast cancer)?
**A.** less than half

**Q.** And the “DNA damage when combined with STS” value (4T1 breast cancer cells)?
**A.** synergistically increased DNA damage

**Q.** For `COc1cccc2c1C(=O)c1c(O)c3c(c(O)c1C2=O)C[C@@](O)(C(=O)CO)C[C@@H]3O[C@H]1C[C@H](N)[C@H](O)[C@H](C)O1` [DXR, doxorubicin], which “metastases in the liver or spleen” value (B16 melanoma cells [2]; fasted mice) is on record?
**A.** not detected

**Q.** What about the “mice with lung metastases” value (B16 melanoma cells [2]; normal feeding) of the same compound?
**A.** 100%

**Q.** What about the “Long-term survival (over 180 days)” value ([3]; 2 cycles of fasting) of the same compound?
**A.** 42%

**Q.** What about the mortality ([3]; ad lib group) of the same compound?
**A.** 100%

**Q.** What about the “sensitization by serum from fasted mice” value [1] of the same compound?
**A.** sensitized

**Q.** What about the “DNA damage when combined with STS” value (B16 melanoma cells [4]) of the same compound?
**A.** synergistically increased DNA damage

**Q.** And the “DNA damage when combined with STS” value (GL26 glioma cells)?
**A.** synergistically increased DNA damage

**Q.** And the “DNA damage when combined with STS” value (GL26 glioma cells; listed as doxorubicin)?
**A.** additive

**Q.** And the “cancer cell lines sensitized by STS” value [5]?
**A.** 15 out of 17

**Q.** Which “sensitivity to chemotherapy (CP)” value ([1]; HO-1 inhibitor, 20 μM, 24 h before and 24 h during CP) does the source give for `C=CC1=C(C)c2cc3[n-]c(cc4nc(cc5[n-]c(cc1n2)c(C)c5C=C)C(C)=C4CCC(=O)O)c(CCC(=O)O)c3C.[Zn+2]` [ZnPP, zinc protoporphyrin] here?
**A.** sensitized cancer cells to chemotherapy

**Q.** Which “fasting-dependent sensitization to chemotherapy (CP)” value ([1]; HO-1 inducer, 10 μM, 24 h before and 24 h during CP) does the source give for hemin here?
**A.** partially reversed

**Q.** Which self-reported side effects ([6]; case 3, 75 mg/m2 with fasting, versus previous ad-lib cycles) does the source give for `CC(=O)O[C@@]12CO[C@@H]1C[C@H](O)[C@@]1(C)C(=O)[C@H](O)C3=C(C)[C@@H](OC(=O)[C@H](O)[C@@H](NC(=O)OC(C)(C)C)c4ccccc4)C[C@@](O)([C@@H](OC(=O)c4ccccc4)[C@H]21)C3(C)C` [DTX, docetaxel] here?
**A.** considerably lower side effects

**Q.** What about the self-reported side effects ([6]; case 3, chemotherapy cycles without fasting) of the same compound?
**A.** fatigue, weakness, metallic taste, dizziness, forgetfulness, short-term memory impairment and peripheral neuropathy

**Q.** And the self-reported side effects [6, 7]?
**A.** almost non-existent except for mild vibratory sensation in their feet

**Q.** And the PSA level (prostate adenocarcinoma; case 3, 25 mg/m2 weekly, no fasting)?
**A.** 40.6 ng/mL

**Q.** And the “PSA after 3 cycles of chemotherapy with fasting” value (prostate adenocarcinoma; case 3, reduced from 34.2, testosterone cream 1% applied before chemotherapy)?
**A.** 6.43 ng/mL

**Q.** And the PSA level (prostate adenocarcinoma; case 3, upon restarting chemo-fasting treatments, 75 mg/m2)?
**A.** dropped immediately

**Q.** What about the “PSA levels throughout the cycles” value (prostate adenocarcinoma; [7]) of the same compound?
**A.** consistent decreasing trend

Reference: patent US12646011B2, “Methods and nutritional formulations to increase the efficacy and reduce the side effects of cancer treatment” (UNIVERSITY OF SOUTHERN CALIFORNIA, priority 2009, dated 2026)
